Assay results: patent US8754226B2, “Piperidinyl-substituted lactams as GPR119 modulators” (Array BioPharma Inc., priority 2010, dated 2014)

System: modified version of the GPR119 receptor (94% identity to human receptor)
Assay: cAMP production assay (LANCE cAMP kit, TR-FRET) in HEK-293 cells
Assay type: cell-based
Settings: for cAMP production in HEK-293 cells: HEK-293 cells stably expressing modified GPR119, test compounds 0.2 nM to 10 μM, one-hour incubation at ambient temperature; for Fold over baseline: increase in cAMP relative to basal levels, agonist activity if 1.5-fold or greater
Outline: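 Doxycycline-induced (1 μg/mL, overnight) HEK-293 cells expressing modified GPR119 were thawed, 2000 cells/well, and exposed to compounds (0.2 nM-10 μM final, 0.5% DMSO) for 1 h at ambient temperature in HBSS/HEPES/BSA. cAMP was measured by LANCE TR-FRET against a standard curve. Agonism was defined as ≥1.5-fold over basal.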

CS(=O)(=O)c1ccc(N[C@H]2CCN(C3CCN(c4cnc(Cl)cn4)CC3)C2=O)cn1 [Example 131, (S)-1-(1-(5-chloropyrazin-2-yl)piperidin-4-yl)-3-(6-(methylsulfonyl)pyridin-3-ylamino)pyrrolidin-2-one]
cAMP production in HEK-293 cells: 24.8 nmol | Fold over baseline: 3.8

CS(=O)(=O)c1ccc(N[C@H]2CCN(C3CCN(c4nccnc4C#N)CC3)C2=O)c(F)c1 [Example 132, (S)-3-(4-(3-(2-fluoro-4-(methylsulfonyl)phenyl-amino)-2-oxopyrrolidin-1-yl)piperidin-1-yl)pyrazine-2-carbonitrile]
cAMP production in HEK-293 cells: 9.1 nmol | Fold over baseline: 1.5

Cc1nc(S(C)(=O)=O)ccc1N[C@H]1CCN(C2CCN(c3cnc(Cl)cn3)CC2)C1=O [Example 133, (S)-1-(1-(5-chloro-pyrazin-2-yl)piperidin-4-yl)-3-(2-methyl-6-(methylsulfonyl)pyridin-3-ylamino)pyrrolidin-2-one]
cAMP production in HEK-293 cells: 27.9 nmol | Fold over baseline: 2.2

Cc1cnc(N2CCC(N3CC[C@H](Nc4ccc(S(C)(=O)=O)cc4F)C3=O)CC2)c(C#N)n1 [Example 134, (S)-3-(4-(3-(2-fluoro-4-(methylsulfonyl)phenyl-amino)-2-oxopyrrolidin-1-yl)piperidin-1-yl)-6-methylpyrazine-2-carbonitrile]
cAMP production in HEK-293 cells: 35.7 nmol | Fold over baseline: 2.7

CS(=O)(=O)c1ccc(O[C@H]2CCN(C3CCN(c4ncc(C(F)(F)F)cc4Cl)CC3)C2=O)c(F)c1 [Example 136, (S)-1-(1-(3-chloro-5-(trifluoromethyl)pyridin-2-yl)piperidin-4-yl)-3-(2-fluoro-4-(methyl-sulfonyl)phenoxy)pyrrol-idin-2-one]
cAMP production in HEK-293 cells: 36.5 nmol | Fold over baseline: 3.0

O=C1[C@@H](Oc2ccc(-n3cnnn3)cc2)CCN1C1CCN(c2ncc(C(F)(F)F)cc2Cl)CC1 [Example 137, (S)-3-(4-(1H-tetrazol-1-yl)phenoxy)-1-(1-(3-chloro-5-(trifluoro-methyl)pyridin-2-yl)piperidin-4-yl) pyrrolidin-2-one]
cAMP production in HEK-293 cells: 31.7 nmol | Fold over baseline: 6.5

CS(=O)(=O)c1ccc(O[C@H]2CCN(C3CCN(c4ncc(C(F)(F)F)cc4F)CC3)C2=O)c(F)c1 [Example 138, (S)-3-(2-fluoro-4-(methyl-sulfonyl)phenoxy)-1-(1-(3-fluoro-5-(trifluoro-methyl)pyridin-2-yl)piperidin-4-yl) pyrrolidin-2-one]
cAMP production in HEK-293 cells: 38.6 nmol | Fold over baseline: 6.7

CS(=O)(=O)c1ccc(O[C@H]2CCN(C3CCN(c4ncc(Cl)cc4F)CC3)C2=O)c(F)c1 [Example 139, (S)-1-(1-(5-chloro-3-fluoropyridin-2-yl)piperidin-4-yl)-3-(2-fluoro-4-(methylsulfonyl)phenoxy) pyrrolidin-2-one]
cAMP production in HEK-293 cells: 26.6 nmol | Fold over baseline: 5.0

COC(=O)c1ccc(O[C@H]2CCN(C3CCN(c4ncc(C(F)(F)F)cc4Cl)CC3)C2=O)c(F)c1 [Example 140, (S)-methyl 4-(1-(1-(3-chloro-5-(trifluoro-methyl)pyridin-2-yl)piperidin-4-yl)-2-oxopyrrolidin-3-yloxy)-3-fluorobenzoate]
cAMP production in HEK-293 cells: 12.2 nmol | Fold over baseline: 2.7

O=C1[C@@H](Oc2ccc(-n3cncn3)cc2)CCN1C1CCN(c2ncc(C(F)(F)F)cc2Cl)CC1 [Example 141, (S)-3-(4-(1H-1,2,4-triazol-1-yl)phenoxy)-1-(1-(3-chloro-5-(trifluoromethyl)pyridin-2-yl)piperidin-4-yl)pyrrolidin-2-one]
cAMP production in HEK-293 cells: 15.5 nmol | Fold over baseline: 3.7

CS(=O)(=O)c1ccc(O[C@H]2CCN(C3CCN(c4ncc(C(F)(F)F)cc4F)CC3)C2=O)cn1 [Example 142, (S)-1-(1-(3-fluoro-5-(trifluoromethyl)pyridin-2-yl)piperidin-4-yl)-3-(6-(methylsulfonyl)pyridin-3-yloxy) pyrrolidin-2-one]
cAMP production in HEK-293 cells: 21.7 nmol | Fold over baseline: 8.3

CS(=O)(=O)c1ccc(O[C@H]2CCN(C3CCN(c4ncc(C(F)(F)F)cc4Cl)CC3)C2=O)cn1 [Example 143, (S)-1-(1-(3-chloro-5-(trifluoromethyl)pyridin-2-yl)piperidin-4-yl)-3-(6-(methylsulfonyl)pyridin-3-yloxy) pyrrolidin-2-one]
cAMP production in HEK-293 cells: 13.3 nmol | Fold over baseline: 4.3

CS(=O)(=O)c1ccc(O[C@H]2CCN(C3CCN(c4ncc(Cl)cc4F)CC3)C2=O)cn1 [Example 144, (S)-1-(1-(5-chloro-3-fluoropyridin-2-yl)piperidin-4-yl)-3-(6-(methylsulfonyl)pyridin-3-yloxy)pyrrolidin-2-one]
cAMP production in HEK-293 cells: 19.6 nmol | Fold over baseline: 2.9

CS(=O)(=O)c1ccc(N[C@H]2CCCN(C3CCN(c4ncc(C(F)(F)F)cc4Cl)CC3)C2=O)c(F)c1 [Example 145, (S)-1′-(3-chloro-5-(trifluoromethyl)pyridin-2-yl)-3-(2-fluoro-4-(methylsulfonyl)phenyl-amino)-1,4′-bipiperidin-2-one]
cAMP production in HEK-293 cells: 28.3 nmol | Fold over baseline: 2.1

CS(=O)(=O)c1ccc(N[C@H]2CCCN(C3CCN(c4ncc(C(F)(F)F)cc4F)CC3)C2=O)c(F)c1 [Example 146, (S)-3-(2-fluoro-4-(methylsulfonyl)phenyl-amino)-1′-(3-fluoro-5-(trifluoromethyl)pyridin-2-yl)-1,4′-bipiperidin-2-one]
cAMP production in HEK-293 cells: 34.6 nmol | Fold over baseline: 2.6

CS(=O)(=O)c1ccc(N[C@H]2CCN(C3CCN(c4ncc(Cl)nc4Cl)CC3)C2=O)c(F)c1 [Example 147, (S)-1-(1-(3,5-dichloropyrazin-2-yl)piperidin-4-yl)-3-(2-fluoro-4-(methylsulfonyl)phenylamino)pyrrolidin-2-one]
cAMP production in HEK-293 cells: 46.4 nmol | Fold over baseline: 3.6

O=C(c1ccc(O[C@H]2CCN(C3CCN(c4ncc(Cl)cc4F)CC3)C2=O)cn1)N1CCCC1 [Example 148, (S)-1-(1-(5-chloro-3-fluoropyridin-2-yl)piperidin-4-yl)-3-(6-(pyrrolidine-1-carbonyl)pyridin-3-yloxy)pyrrolidin-2-one]
cAMP production in HEK-293 cells: 14.4 nmol | Fold over baseline: 2.4

CN(C)C(=O)c1ccc(O[C@H]2CCN(C3CCN(c4ncc(Cl)cc4F)CC3)C2=O)cn1 [Example 149, (S)-5-(1-(1-(5-chloro-3-fluoropyridin-2-yl)piperidin-4-yl)-2-oxopyrrolidin-3-yloxy)-N,N-dimethylpicolinamide]
cAMP production in HEK-293 cells: 6.8 nmol | Fold over baseline: 1.5

N#Cc1ccc(N[C@H]2CCN(C3CCN(c4ncc(C(F)(F)F)cc4Cl)CC3)C2=O)nn1 [Example 150, (S)-6-(1-(1-(3-chloro-5-(trifluoromethyl)pyridin-2-yl)piperidin-4-yl)-2-oxopyrrolidin-3-ylamino)pyridazine-3-carbonitrile]
cAMP production in HEK-293 cells: 17.1 nmol | Fold over baseline: 3.4

O=C(c1ccc(O[C@H]2CCN(C3CCN(c4ncc(C(F)(F)F)cc4Cl)CC3)C2=O)c(F)c1)N1CCCC1 [Example 151]
cAMP production in HEK-293 cells: 35.8 nmol | Fold over baseline: 4.7
